Earlier results in patent publication US6642378B1, “Process for the synthesis of beta-lactam derivatives” (Antibioticos S.p.A., priority 1999, dated 2003).
Where two headings read alike, the source gives them in different places.

How the values were obtained:
[1] = data from MSDS (Material Safety Data Sheet)—OHS
[2] = oral, data from MSDS (Material Safety Data Sheet)—OHS

## CC(C)=O [Acetone]
[1]
  Flash point: −18.0 °C
rat; [2]
  oral DL50 rat: 5800 mg/kg

## CCOC(=O)OCC [Diethylcarbonate]
[1]
  Flash point: 33.0 °C
rat; in vivo, po
  oral DL50 rat: 15000 mg/kg

## COC(=O)OC [Dimethylcarbonate]
[1]
  Flash point: 21.7 °C
rat; in vivo, po
  oral DL50 rat: 13000 mg/kg

## CCOC(C)=O [Ethyl acetate]
[1]
  Flash point: −4.0 °C
rat; [2]
  oral DL50 rat: 5620 mg/kg

## COC(C)=O [Methyl acetate]
[1]
  Flash point: −10.0 °C
rat; in vivo, po
  oral DL50 rat: 5480 mg/kg

## C1CCOC1 [Tetrahydrofuran]
[1]
  Flash point: −17.2 °C
rat; [2]
  oral DL50 rat: 2816 mg/kg
